{
  "source": "patent US8663473B2",
  "about": "“Digestion of biosolids in wastewater” (BCR Environmental Corporation, priority 2009, dated 2014)",
  "key": {"[1]": {"tested_on": "anaerobic digester", "experiment": "Methane production in anaerobic digestion of chlorine dioxide pre-treated sludge", "procedure": "Treatment of non-digested wastewater sludge with chlorine dioxide to solubilized the sludge and make nutrients bio-available and then feeding this material into an established anaerobic digester once the chlorine dioxide residual has been reduced improves gas (methane) production in an anaerobic digester. A generally accepted estimate for methane production at 35° C. is 0.25 kg methane per kg COD consumed. One kmol of methane is equivalent with a mass of 16 kg. Per definition, the COD equivalent of 1 kmol of methane is the mass of the amount of oxygen required for complete oxidation according to the formula: CH4+2O2→CO2+2H2O The mass of the 2 O2 is 2 kmol of oxygen or 64 kg. Thus 64 kg Oxygen Demand is equivalent with 16 kg of methane, or 1 kg of oxygen demand (COD) is equivalent with 16/64=0.25 kg methane.\nThis increase in soluble COD represents 10-11% of the total COD concentration of the sludge, and represents a 2000% increase in soluble COD. The inventors believe that the higher the s-COD the higher capacity for methane production. The resulting increase in methane production as a result of this enhancement of anaerobic digestion has been measured as a greater than 50% increase utilizing this method, and is expected to be in the range of 100% or more over non-pretreated WAS. […]"}, "[2]": {"tested_on": "fecal coliform bacteria", "experiment": "Secondary sludge full-scale test: fecal coliform reduction at varying dose rates of chlorine dioxide", "type": "cell-based", "details": "for Fecal coliform: sludge, 10 minutes contact time", "procedure": "Treatment of non-digested wastewater sludge with chlorine dioxide allows the material to meet Class B pathogen reduction requirements prior to digestion by reducing the fecal coliform concentrations to levels much lower than the Class B standard (<2,000,000 fecal coliform bacteria) with less than 15 minutes contact time. The resulting biosolids cake has no odor.\nIn this test, chlorine dioxide was generated on-site, and was injected (at varying concentrations) into a 100 gpm sludge flow passing through a 4 inch diameter pipe. The pipe length was sufficient to allow 10 minutes of contact time between the sludge and the chlorine dioxide prior to dewatering the material."}, "[3]": {"tested_on": "Waste activated sludge (WAS)", "experiment": "WAS solubilization by chlorine dioxide: soluble COD, NH4 and PO4 release over contact time", "details": "for soluble COD concentration: contact time 24 h, WAS approx. 7 g/L solids", "procedure": "Waste activated sludge (WAS) was obtained from a local municipal WWTP which removes cBOD only and uses a pure oxygen system. In order to achieve similar experiment conditions and be consistent with the previous pilot experiment, the solids concentration was adjusted to approximately 7 g/L. Three digesters were set up and treated with chlorine dioxide dosages of 100, 150 and 200 mg/L respectively. The digesters were operated for 24 hours. Samples were taken at time intervals of 10 min, 1 h, 6 h, 12 h and 24 h to represent different contact time.\nThis confirmed that chlorine dioxide contact time is the key factor for WAS solubilization. The increased soluble COD concentration can be expressed as 10-11% of TCOD which is quite significant. It was also observed that soluble COD concentration at contacting time of 6 hr was approximately 55-66% of the soluble COD at time 24 hrs. […] The increase of soluble COD corresponded to the volatile solids destruction of 4-6% with different chlorine dioxide treatment dosage.\nThis is considered insignificant. The PO4 increase was much higher and equaled 16 to 28.3 mg P/L after 24 h. Higher phosphorus than nitrogen release can be attributed to the chlorine dioxide treatment which breaks down the cell walls resulting in the release of unbound orthophosphate PO4—P. The nitrogen in the cells is in the form of organic nitrogen (amino acids) and enzymes are required to convert organic nitrogen to ammonia nitrogen. The low pH resulting from the chlorine dioxide treatment may have deactivated the enzyme activity, therefore no/insignificant NH4—N increase was detected."}},
  "data": [
    {"smiles": "[O][Cl+][O-]", "note": "[chlorine dioxide]", "values": [
      {"measurement": "expected increase in methane production", "setting": "[1]; over non-pretreated WAS, expected", "value": "≥ 100", "unit": "%"},
      {"measurement": "increase in methane production", "setting": "[1]; versus non-pretreated WAS", "value": "greater than 50%"},
      {"measurement": "fecal coliform concentrations relative to Class B standard", "setting": "[2]; non-digested wastewater sludge, less than 15 minutes contact time", "value": "< 2,000,000"},
      {"measurement": "Fecal coliform", "setting": "[2]; dose rate ClO2 32 mg/L", "value": "3.32 × 10^5 MPN/g"},
      {"measurement": "Fecal coliform", "setting": "[2]; dose rate ClO2 48 mg/L", "value": "123,000 MPN/g"},
      {"measurement": "Fecal coliform", "setting": "[2]; dose rate ClO2 64 mg/L", "value": "1,800 MPN/g"},
      {"measurement": "Fecal coliform", "setting": "[2]; dose rate ClO2 80 mg/L", "value": "BDL"},
      {"measurement": "Fecal coliform", "setting": "[2]; dose rate ClO2 96 mg/L", "value": "BDL"},
      {"measurement": "Fecal coliform", "setting": "[2]; dose rate ClO2 128 mg/L", "value": "BDL"},
      {"measurement": "Fecal coliform", "setting": "[2]; dose rate ClO2 160 mg/L", "value": "BDL*"},
      {"measurement": "NH4 increase", "setting": "[3]; all chlorine dioxide treatments", "value": "3-5.2 mg N/L"},
      {"measurement": "soluble COD concentration", "setting": "[3]; chlorine dioxide dosage 100 mg/L", "value": 913, "unit": "mg/L"},
      {"measurement": "soluble COD concentration", "setting": "[3]; chlorine dioxide dosage 150 mg/L", "value": 984, "unit": "mg/L"},
      {"measurement": "soluble COD concentration", "setting": "[3]; chlorine dioxide dosage 200 mg/L", "value": 965, "unit": "mg/L"},
      {"measurement": "volatile solids destruction", "setting": "[3]; different chlorine dioxide treatment dosages", "value": "4-6%"},
      {"measurement": "soluble COD at contact time 6 hr as % of soluble COD at 24 hrs", "setting": "[3]; dosages 100-200 mg/L", "value": "55-66%"},
      {"measurement": "increase in soluble COD", "setting": "[3]; dosages 100-200 mg/L, 24 h", "value": 2000, "unit": "%"},
      {"measurement": "increased soluble COD expressed as % of total COD (TCOD)", "setting": "[3]; dosages 100-200 mg/L, 24 h", "value": "10-11%"}
    ]}
  ]
}
